In one experiment the target is T1, hCA I (Homo sapiens, UniProt P00915).
T1 construct: made in house
The experiment in a line: hCA I hydratase activity inhibition assay (Wilbur-Anderson method). The experiment is classed as biochemical. As to conditions: for Ki: Cheng-Prusoff equation. As for the experimental part: (§1) Purification of hCA I and hCA II by affinity chromatography was performed as described in the previous work.
(§2) The Wilbur-Anderson method, as modified by Wilber et al., was used to calculate CA activity. With the help of a bromothymol blue indicator and a measurement of the passing time, the pH changes were calculated using this approach, which causes the hydration of CO2 to release H^+ ions. The equation (to-tc/tc), where to and tc are the times for pH change of the enzymatic and nonenzymatic processes, respectively, was used to compute the enzyme unit (EU).
(§3) While keeping the concentration of the substrate constant, IC50 values for the various compounds were computed. Enzyme activities in the absence of inhibitors in the medium were taken as 100% activity. By assessing the hydratase activity in the presence of various inhibitor concentrations, the activity % values of enzymes were calculated. Utilizing graphs of activity %-[I] for each inhibitor, the IC50 value was determined. The Cheng-Prusoff equation was used to derive inhibition constants using the nonlinear least squares method.

For a further experiment, the target named is T2, hCA II (Homo sapiens, UniProt P00918).
T2 construct: made in house
The experiment in a line: hCA II hydratase activity inhibition assay (Wilbur-Anderson method). The format is biochemical. As to conditions: for relative inhibitory activity hCA II versus hCA I: comparison of IC50 values on hCA I and hCA II. As for the experimental part: as §1, §2, §3

Where [1] appears, read: hydratase activity, constant substrate concentration, read-out: IC50 hCA I.

Nine compounds from paper PMC10258912, “Synthesis and Molecular Docking of New N-Acyl Hydrazones-Benzimidazole as hCA I and II Inhibitors” (Medicinal Chemistry (Shariqah (United Arab Emirates), 2023) can be followed below.

Like-named read-outs stand apart in the source and are kept apart here.

T1 sequence (P00915 whole entry): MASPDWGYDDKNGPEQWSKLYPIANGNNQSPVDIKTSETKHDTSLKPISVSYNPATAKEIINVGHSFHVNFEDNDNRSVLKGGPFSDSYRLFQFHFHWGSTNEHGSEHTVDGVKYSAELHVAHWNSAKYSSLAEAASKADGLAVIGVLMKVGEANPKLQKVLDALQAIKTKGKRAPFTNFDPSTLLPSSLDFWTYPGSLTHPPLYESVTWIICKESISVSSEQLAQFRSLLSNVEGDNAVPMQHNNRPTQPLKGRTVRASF

On hCA I, `CCN(CC)c1ccc(C=NNC(=O)c2ccc(-c3nc4ccccc4[nH]3)cc2)cc1` [Compound 3c, 4-(1H-benzimidazole-2-yl)-N’-(4-(diethylamino)benzylidene)benzohydrazide] returned an IC50 of 2.09 µM. As to `CC(C)c1ccc(C=NNC(=O)c2ccc(-c3nc4ccccc4[nH]3)cc2)cc1` [Compound 3d, 4-(1H-benzimidazole-2-yl)-N’-(4-isopropylbenzylidene)benzohydrazide], the IC50 on hCA I (setting [1]) stood at 1.87 µM. As to `CCOc1ccc(C=NNC(=O)c2ccc(-c3nc4ccccc4[nH]3)cc2)cc1` [Compound 3i, 4-(1H-benzimidazole-2-yl)-N’-(4-ethoxybenzylidene) benzohydrazide], the “relative inhibitory activity hCA II versus hCA I” value on hCA II is “more inhibitory activity on hCA II than hCA I”. Take `O=C(NN=Cc1ccc(OCc2ccccc2)cc1)c1ccc(-c2nc3ccccc3[nH]2)cc1` [Compound 3j, 4-(1H-benzimidazole-2-yl)-N’-(4-(benzyloxy)benzylidene)benzohydrazide]: the concentration for half-maximal inhibition (IC50) at hCA I (setting [1]) is 1.95 µM. For `COc1ccc(C=NNC(=O)c2ccc(-c3nc4ccccc4[nH]3)cc2)cc1` [Compound 3k, 4-(1H-benzimidazole-2-yl)-N’-(4-methoxybenzylidene)benzohydrazide], at hCA II, the “relative inhibitory activity hCA II versus hCA I” value was “more inhibitory activity on hCA II than hCA I”. `O=C(NN=Cc1ccc(F)cc1)c1ccc(-c2nc3ccccc3[nH]2)cc1` [Compound 3l, 4-(1H-benzimidazole-2-yl)-N’-(4-fluorobenzylidene)benzohydrazide]: the “relative inhibitory activity hCA II versus hCA I” value on hCA II is “fairly close inhibitory properties on hCA I and hCA II”. In addition, the half-inhibitory concentration (IC50) on hCA II (hydratase activity, constant substrate concentration) was determined as 2.74 µM; at hCA I (setting [1]), 2.72 µM. As for `O=C(NN=Cc1ccc([N+](=O)[O-])cc1)c1ccc(-c2nc3ccccc3[nH]2)cc1` [Compound 3n, 4-(1H-benzimidazole-2-yl)-N’-(4-nitrobenzylidene) benzohydrazide], the “relative inhibitory activity hCA II versus hCA I” value at hCA II was “more inhibitory activity on hCA II than hCA I”. Besides, affinity on hCA I was put at a Ki of 0.956 µM.

Consider `Cc1ccc(C=NNC(=O)c2ccc(-c3nc4ccccc4[nH]3)cc2)cc1` [Compound 3p, 4-(1H-benzimidazole-2-yl)-N’-(4-methylbenzyli-dene) benzohydrazide], for which, on hCA I, the “type of inhibition, hCA I” value is on record as “noncompetitive” and the inhibition constant (Ki) was 0.299 ± 0.01 µM. For the same compound, the half-inhibitory concentration (IC50) on hCA I (setting [1]) came out at 1.68 µM. “N-(1H-benzimidazole-2-yl)-N’-benzylidenebenzo hydrazide [Compound 3a]”: on hCA II, the “relative inhibitory activity hCA II versus hCA I” value is “more inhibitory activity on hCA II than hCA I”.

A word on the IC50: it is the midpoint of a concentration-inhibition curve. As a reminder, the Ki is a measure of affinity in units of concentration, obtained from inhibition or displacement. A low value points to a stronger hold on the target.
